One assay has as its target activated human C1 (Homo sapiens, UniProt P09871). Nature of the assay: Test Code 026 (C1 inhibitor). Conditions: in vitro; serial twofold dilution assay, higher well number higher activity. In kind it is biochemical. How it is done: (§1) Percent inhibition is calculated by comparison with simultaneous controls.
Assay [1] concerns late components of human complement (C3-C9). Nature of the assay: Test Code 035 (C3-C9 inhibitor). The assay is classed as biochemical. Conditions: in vitro; lysis of EAC 142; serial twofold dilution assay, higher well number higher activity. The protocol: as §1
Assay [2] deals with serum complement activity. Kind of assay: Guinea Pig Intraperitoneal Test (GPIP). In kind it is in vivo. The note with it: Cavia porcellus, ip, 200 mg/kg i.p. The protocol: as §1

SMILES strings stand for the structures. Where two headings read alike, the source gives them in different places.

Chain of activated human C1 (P09871 16-688): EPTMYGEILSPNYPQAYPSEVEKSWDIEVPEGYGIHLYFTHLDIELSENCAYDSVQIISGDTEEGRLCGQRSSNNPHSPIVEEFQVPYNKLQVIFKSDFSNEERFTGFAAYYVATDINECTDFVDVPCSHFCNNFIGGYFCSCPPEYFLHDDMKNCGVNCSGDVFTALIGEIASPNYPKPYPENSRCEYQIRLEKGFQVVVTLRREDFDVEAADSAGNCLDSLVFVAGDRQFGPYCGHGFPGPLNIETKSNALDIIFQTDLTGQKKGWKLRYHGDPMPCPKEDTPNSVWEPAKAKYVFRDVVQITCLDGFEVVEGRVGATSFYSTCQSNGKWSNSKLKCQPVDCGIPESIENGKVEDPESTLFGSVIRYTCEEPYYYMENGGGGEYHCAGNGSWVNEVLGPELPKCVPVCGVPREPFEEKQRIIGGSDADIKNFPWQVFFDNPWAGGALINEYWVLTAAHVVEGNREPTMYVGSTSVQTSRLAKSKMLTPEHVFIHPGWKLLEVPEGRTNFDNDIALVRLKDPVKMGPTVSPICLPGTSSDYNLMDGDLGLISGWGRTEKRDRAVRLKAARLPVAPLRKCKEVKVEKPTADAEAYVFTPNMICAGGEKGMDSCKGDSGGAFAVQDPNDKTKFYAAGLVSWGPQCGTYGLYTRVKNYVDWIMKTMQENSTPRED
Chain of activated human C1 (P00736 18-705 partner): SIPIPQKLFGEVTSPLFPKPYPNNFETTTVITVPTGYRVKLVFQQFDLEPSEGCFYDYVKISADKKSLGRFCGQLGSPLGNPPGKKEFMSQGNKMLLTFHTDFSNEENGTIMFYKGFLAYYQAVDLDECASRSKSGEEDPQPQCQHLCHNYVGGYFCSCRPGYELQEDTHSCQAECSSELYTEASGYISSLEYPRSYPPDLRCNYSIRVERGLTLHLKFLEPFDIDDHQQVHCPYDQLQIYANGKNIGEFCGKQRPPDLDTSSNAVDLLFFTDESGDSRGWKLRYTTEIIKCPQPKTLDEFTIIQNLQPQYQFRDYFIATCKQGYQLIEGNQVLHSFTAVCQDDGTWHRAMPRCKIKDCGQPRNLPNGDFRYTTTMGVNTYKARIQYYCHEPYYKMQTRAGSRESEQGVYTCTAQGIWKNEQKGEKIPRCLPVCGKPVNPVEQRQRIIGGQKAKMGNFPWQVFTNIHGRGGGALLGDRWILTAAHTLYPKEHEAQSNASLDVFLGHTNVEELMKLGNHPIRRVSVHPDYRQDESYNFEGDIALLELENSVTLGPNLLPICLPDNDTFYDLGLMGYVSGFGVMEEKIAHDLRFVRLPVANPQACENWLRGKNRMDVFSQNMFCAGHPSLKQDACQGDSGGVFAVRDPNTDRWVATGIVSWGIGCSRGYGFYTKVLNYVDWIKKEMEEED
Chain of activated human C1 (P02745 23-245 partner): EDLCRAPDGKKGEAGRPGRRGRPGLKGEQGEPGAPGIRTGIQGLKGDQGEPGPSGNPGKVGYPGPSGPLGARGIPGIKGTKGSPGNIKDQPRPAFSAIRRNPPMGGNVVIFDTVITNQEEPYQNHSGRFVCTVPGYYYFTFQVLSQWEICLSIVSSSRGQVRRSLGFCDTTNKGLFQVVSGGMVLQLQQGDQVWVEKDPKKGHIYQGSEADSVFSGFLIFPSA
Chain of activated human C1 (P02746 28-253 partner): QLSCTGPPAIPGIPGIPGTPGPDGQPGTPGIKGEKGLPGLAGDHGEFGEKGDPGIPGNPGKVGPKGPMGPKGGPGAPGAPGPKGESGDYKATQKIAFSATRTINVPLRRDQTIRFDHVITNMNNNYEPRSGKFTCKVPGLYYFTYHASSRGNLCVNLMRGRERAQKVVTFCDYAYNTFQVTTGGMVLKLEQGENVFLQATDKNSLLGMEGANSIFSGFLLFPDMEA
Chain of activated human C1 (P02747 29-245 partner): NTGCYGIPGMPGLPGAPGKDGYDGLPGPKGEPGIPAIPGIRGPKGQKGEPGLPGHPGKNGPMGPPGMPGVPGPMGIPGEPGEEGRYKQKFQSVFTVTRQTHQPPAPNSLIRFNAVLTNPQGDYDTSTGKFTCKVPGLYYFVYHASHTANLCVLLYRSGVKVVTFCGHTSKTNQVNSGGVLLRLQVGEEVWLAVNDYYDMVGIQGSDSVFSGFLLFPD

In general, inhibition refers to the drop in the measured response relative to a control, in per cent. For the compound `O=C(Nc1ccc(S[C@@H]2O[C@H](COS(=O)(=O)O)[C@@H](O[C@H]3O[C@H](COS(=O)(=O)O)[C@@H](OS(=O)(=O)O)[C@H](OS(=O)(=O)O)[C@H]3OS(=O)(=O)O)[C@H](OS(=O)(=O)O)[C@H]2OS(=O)(=O)O)cc1)Nc1ccc(S[C@@H]2O[C@H](COS(=O)(=O)O)[C@@H](O[C@H]3O[C@H](COS(=O)(=O)O)[C@@H](OS(=O)(=O)O)[C@H](OS(=O)(=O)O)[C@H]3OS(=O)(=O)O)[C@H](OS(=O)(=O)O)[C@H]2OS(=O)(=O)O)cc1.[Na].[Na].[Na].[Na].[Na].[Na].[Na].[Na].[Na].[Na].[Na].[Na].[Na].[Na]` [Tetradecasodium N,N'-bis[4-[[2,3,6-tri-O-sulfo-4-O-(2,3,4,6-tetra-O-sulfo-α-D-glucopyranosyl)-β-D-glucopyranosyl]thio]phenyl]urea], the “C-1 026 Wells” value on activated human C1 is listed as 11 Wells. Also, the “C-Late 035 Wells” value in assay [1] is on record as 2 Wells. Moreover, the inhibition at 200 mg/kg in assay [2] (serum taken 2 hours after injection, read-out: In vivo Activity (Guinea Pig % Inhibition) (Intraperitoneal) Time 2 Hours) is 90%; in assay [2] (serum taken 6 hours after injection, read-out: In vivo Activity (Guinea Pig % Inhibition) (Intraperitoneal) Time 6 Hours), 91%; in assay [2] (serum taken 24 hours after injection, read-out: In vivo Activity (Guinea Pig % Inhibition) (Intraperitoneal) Time 24 Hours) it was 58%.

For the origin of these results see patent US4431636A, “Bis(4-O-polyhexaose-thio)-phenyl ureas and method of use” (American Cyanamid Company, priority 1982, dated 1984).
